The values below come from patent publication US9018188B2, “MicroRNA inhibitors” (Ottawa Hospital Research Institute, priority 2011, dated 2015).

One series concerns let-7a microRNA. As to the kind of experiment: RT-qPCR of let-7a expression after intramuscular ASO injection (specificity). It counts as in vivo, mouse. The note with it: intramuscular administration. An excerpt:
(§1) To investigate miR-133 function in brown adipose determination of satellite cells in vivo, Applicant synthesized miR-133 antagomiR (miR-133 antisense oligonucleotide (ASO)) with an antisense sequence to both miR-133a and miR-133b, as well as a control “antagomiR” (control ASO) with the same chemical modifications and not antisense to any mouse gene or EST sequence (see Experimental Procedures). Applicant performed lineage tracing to distinguish effects of miR-133 ASO on satellite cells versus other cell types. Six week old Pax7-CreER; R26R-tdTomato mice were treated with tamoxifin as before (5 consecutive daily injections), then aged to 10 weeks of age prior to initiating the experiment. Control ASO versus miR-133 ASO were injected into tibialis anterior (TA) muscles 3 days following saline injection (quiescent state) or cardiotoxin injection (to induce activation). After one month, RT-qPCR was performed using RNA isolated from several tissues to evaluate the efficacy and scope of miR-133 ASO administration.
(§2) To induce brown adipocytes in vivo, 10 mg/mL Cardiotoxin solution (50 μl) was intramuscularly injected into TA muscles of 10-week old Pax7-CreER/R26R-tdTomato mice (FIG. 4) or C57BL/6 mice (FIG. 5 and FIG. 6). Alternatively, frozen injury was performed by applying liquid nitrogen cooled tweezers tips directly onto the anterior sides of TA muscles. […]
For orientation: Quantitative PCR measures a nucleic acid by following its amplification.

The next series concerns IL-1β and TNF-α. Conditions: mouse, in vivo.
The subject of another series is Ucp1. Kind of series: UCP1 immunoblot in inguinal and epididymal white adipose tissues. It counts as in vivo, mouse. The method, then: (§3) Normalized UCP1 levels were calculated based on the densitometry analysis of the UCP1 immunoblot and the α-Tubulin immunoblot. The interscapular brown adipose tissue (iBAT) were included as a control. Asterisk denotes the loading of the iBAT lanes on the UCP1 immunoblot was 1/100 of other lanes to avoid overloading. (B) Immunohistochemistry (IHC) of UCP1 protein reveal miR-133 antagonism induced beige adipocytes within inguinal and epididymal white adipose tissues. […] Error bars: S.E.M., asterisk: significant pair-wise comparison by t-test, *: p≦0.05, **: p≦0.01, ***: p≦0.001.
The following antibodies and dilutions were used: anti-Prdm16 antibody (generated in Dr. Patrick Seale's laboratory), 1:5,000 dilution; anti-Perilipin A antibody (Vala Sciences), 1:5,000 dilution; anti-Ucp1 antibody (Ab10983, Abeam), 1:1,000 dilution (FIGS. 4B, 5A, 7A); anti-Ucp1 antibody (Calbiochem), 1:1,000 dilution (FIG. 8C); anti-Ucp3 antibody (Ab3477, Abeam), 1:1,000 dilution; anti-Pgc1α antibody (Abeam), 1:1,000 dilution; anti-pan myosin heavy chain (MyHC) antibody (Developmental Studies Hybridoma Bank), 1:500; anti-DsRed (tdTomato) antibody (Ablab), 1:500; anti-α-Tubulin antibody (Sigma-Aldrich), 1:10,000 dilution.
In general terms: A western blot detects proteins with antibodies after separation by electrophoresis.

In the next series the test system is Ucp3. As to the kind of experiment: Immunoblot of Ucp3 in TA muscle after ASO injection. The format is in vivo, mouse. The note with it: TA muscles.
From the text: as §1, §2

The next series relates to miR-133a and miR-133b. Kind of series: RT-qPCR of miR-133 expression after intramuscular ASO injection. It counts as in vivo, mouse.
From the text: as §1
To induce brown adipocytes in vivo, 10 mg/mL Cardiotoxin solution (50 μl) was intramuscularly injected into TA muscles of 10-week old Pax7-CreER/R26R-tdTomato mice (FIG. 4) or C57BL/6 mice (FIG. 5 and FIG. 6). Alternatively, frozen injury was performed by applying liquid nitrogen cooled tweezers tips directly onto the anterior sides of TA muscles. After 3 days, 20 μg of miR-133 antagomiR or control antagomiR in saline (50 μl) was intramuscularly injected into the same injured TA muscles (on right hindlimbs). To test efficacy of miR-133 ASO in intact muscles, saline, instead of Cardiotoxin, was injected to TA muscles before miR-133 ASO administration (FIGS. 4A, 4B). miR-133 antagomiR and scramble antagomiR were designed as previously described (Krutzfeldt et al., 2005).
Total RNA was extracted from cells by TRIzol or Arcturus® PicoPure® RNA Isolation Kit (Applied Biosystems) following manufactures' recommendations. […]

The next series has as its system Fndc5. Kind of series: qRT-PCR of Fndc5 in ASO treated muscles. It counts as in vivo, mouse. Conditions: both RD and HFD conditions. The procedure:
as §3
Total RNA was extracted from cells by TRIzol or Arcturus® PicoPure® RNA Isolation Kit (Applied Biosystems) following manufactures' recommendations. For RT-qPCR of mRNAs, total RNAs were reverse transcribed into cDNAs by SuperScript III (Invitrogen) and a mixture of oligodT18-20 primers and random hexamers. microRNA RT-qPCRs were performed as previously described (Shi and Chiang, 2005).

The nature of series [1]: Indirect calorimetry, physical activity and food intake. The format is in vivo, mouse. An excerpt: To assess whether miR-133 ASO treatment leads to increased whole-body energy expenditure, Applicant carried out indirect calorimetry studies at 2-3 months after ASO treatment on control- and miR-133 ASO treated mice (C57BL/6, male, individually caged, n=5 per treatment group per diet group; FIGS. 6C & 7B). […] Intriguingly, this amount of energy expenditure is coincident with the increase of mitochondrial respirometry-measured energy expenditure in miR-133 ASO treated TA muscles after adjustment with TA muscle mass (FIG. 7A; 0.3 cal·hour^−1·le^−1×75 mg=0.0225 kcal·hour^−1).
This discrepancy may be related to the abnormally low respiratory exchange ratio (˜0.76) in the control mice fed with HFD (FIG. 7D), which indicates an increased proportion of lipid oxidation in the control mice. […] In addition, miR-133 ASO treatment also led to much improved glucose tolerance in both diet groups (FIGS. 6E & 7F).
Whole-body O2 consumption and CO2 production was measured using an open circuit four-chamber indirect calorimetry system with automatic temperature and light controls (Columbus Instruments). Physical activities during indirect calorimetry was measured using infrared laser beam sets. Mice had access ad libitum to food and water in respiration chambers. Data were recorded for a 24 hour period with light between 06:00-18:00.

Regarding “*mA*mUmAmGmCmUmGmGmUmUmGmAmAmGmGmGmGmAmC*mC*mA*mA*mAChl [miR-133 ASO]”, the “let-7a microRNA expression” value with let-7a microRNA is “no effect”. The “expression of IL-1β and TNF-α between control- and treated muscles” value with IL-1β and TNF-α is recorded as “no difference”. The “effect on UCP1 in white adipose tissues” value with Ucp1 (C57BL/6 mice fed with a high fat diet (HFD)) is “not present”. The “UCP1 in inguinal and epididymal white adipose tissues” value with Ucp1 (C57BL/6 mice fed with a regular diet (RD), CTX) is “increase”. Further, the “Ucp3 protein by immunoblotting” value with Ucp3 was “largely unaffected”. For the same substance, the “miR-133a/b expression in the contralateral TA muscles” value with miR-133a and miR-133b (ASO injected into resting muscles) is listed as “repressed”. In addition, the “miR-133 expression in the myocardium” value in the series on miR-133a and miR-133b (intramuscular administration) is “unaffected”. Besides, the “miR-133a and miR-133b expression within the injected TA muscles” value with miR-133a and miR-133b (intramuscular, one month after injection, resting or regenerating muscle) is on record as “striking reduction”. Moreover, the “expression of Fndc5 compared to control muscles” value in the series on Fndc5 is listed as “increased”. In series [1] (HFD, dark cycle), the “energy expenditure or physical activity compared to control mice” value was “No significant increase”. In addition, the physical activities entry is “without difference” in series [1] (HFD, light cycle); “increased” in series [1] (RD, dark cycle); “without change” in series [1] (RD, light cycle). The total energy expenditure entry in series [1] (HFD, light cycle) is “significantly increased”; in series [1] (RD, light cycle, 2-3 months after treatment), “significant increase”. In series [1] (RD, dark cycle), the energy expenditure entry is “conspicuously high”. In addition, the “24-hour food intake versus control mice” value in series [1] (both diet groups) is on record as “comparable”.
